Target: SARS-CoV-2 PLPro (full-length, intact C111) (Severe acute respiratory syndrome coronavirus 2, UniProt P0DTD1, C1833S)
Format: biochemical

First: Cn1ncc2c(Nc3ccccc3Cl)ncnc21 [Fragment 7]
Second: Cc1cc(Nc2ccccc2C)n2ncnc2n1 [Fragment 9]
The “inhibition at 1 mM” value of the first is higher: 30% for the first, 5% for the second.

Compared with `CC(C)c1cc(O)n2ncc(-c3ccccc3)c2n1` [Fragment 8], `Cc1ccc(Nc2cc(C)nc3nncn23)c(C)c1` [Fragment 11] is lower in “inhibition at 1 mM” value: 62% for the first, 2% for the second.
